# Laboratory results from the NIST ThermoML archive (doi:10.1016/j.jct.2004.04.004).
# ± gives the expanded uncertainty stated by the source.
# Experiments:
# [1] = refractive index (Na D-line) (dimensionless); details: 293.15 K; 101.33 kPa; Liquid; Standard Abbe refractometry
# [2] = 298.15 K; 101.33 kPa; Liquid
SMILES,refractive index [1],mass density [2] [kg/m3]
C[S+](C)[O-] [dimethyl sulfoxide],1.4785 ± 0.0007,1095.62 ± 0.39
"Cc1ccccc1C [1,2-dimethylbenzene]",1.5057 ± 0.0007,875.73 ± 0.44
"Cc1cccc(C)c1 [1,3-dimethylbenzene]",1.4973 ± 0.0008,859.83 ± 0.99
"Cc1ccc(C)cc1 [1,4-dimethylbenzene]",1.49577 ± 0.00075,856.58 ± 0.63
